Assay results: patent US20150087619A1, “METHOD OF MITIGATING VIRUS ASSOCIATED END-ORGAN DAMAGE” (CHIMERIX, INC., priority 2012, published 2015)
Values joined by “and” are separate entries in the source; they are usually repeats but may differ in a detail not shown here. Equal values may be shown once. “Also recorded” adds a separate entry of the source.

Assays:
[1] = Safety in clinical trials; assay type: in vivo, human; conditions: extensive clinical trials
CMV [2] = assay: In vitro antiviral activity in cell culture; assay type: cell-based; conditions: Human betaherpesvirus 5
HHV-6(B) = assay: In vitro antiviral activity in cell culture; assay type: cell-based
CMV [3] = assay: HDP-CDV given to patients with viral infections, virology data; conditions: patient
HSV = assay: as above; conditions: patient 2 mo, 4.63 kg, neonatal HSV encephalitis; 4 mg/kg BIW; to below the limit of detection
JCV = assay: as above; conditions: patient, JCV associated PML; 2 mg/kg BIW; initial 398 (CSF) and 557 (urine)
BKV [4] = assay: Study HDP-CDV-201: serum creatinine as marker of renal function; conditions: for Creatinine level and renal function vs placebo: BKU+ at baseline (post-HSCT engraft)
HSV-1 = assay: In vitro antiviral activity in cell culture; assay type: cell-based; conditions: Human alphaherpesvirus 1; HSV-1, cell culture
VZV = assay: Virus spread in VZV-infected cultures; assay type: cell-based; conditions: 1 day of 20 μg/mL in the medium, given on Day −1, 0, 2, or 3
AdV = assay: In vitro antiviral activity in cell culture; assay type: cell-based
BKV [5] = assay: Study HDP-CDV-201: hematuria and BKV bladder events; assay type: in vivo, human
Experimental: A multicenter, randomized, double-blind, placebo-controlled, dose-escalation study of safety, tolerability, and ability of HDP-CDV to prevent or control […], and EBV infection and associated disorders was conducted. During enrollment of patients in the study, urine samples of candidate patients were routinely screened for BKV. Plasma was collected from patients who tested positive for BKV viruria in urine, and AdV, EBV and BKV level in the plasma was evaluated.

[6] = Phase 1 comparative bioavailability (solution vs tablet) and food effect study; conditions: for Plasma HDP-CDV CL/F / Plasma HDP-CDV Tmax / Plasma HDP-CDV AUC0-inf / Plasma HDP-CDV AUC0-last / Plasma HDP-CDV Cmax / Plasma HDP-CDV t1/2: single oral dose; for Plasma HDP-CDV CL/F / Plasma HDP-CDV Tmax / Plasma HDP-CDV AUC0-inf / Plasma HDP-CDV AUC0-last / Plasma HDP-CDV Cmax / Plasma HDP-CDV t1/2 / Plasma Cidofovir CL/F: healthy volunteers; for Plasma HDP-CDV CL/F / Plasma HDP-CDV AUC0-inf / Plasma HDP-CDV AUC0-last / Plasma HDP-CDV Cmax / Plasma HDP-CDV t1/2 / Plasma Cidofovir CL/F: mean; for Plasma HDP-CDV Tmax: median;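 as to all read-outs here: plasma levels quantified by validated LC-MS/MS, LLOQ 0.1 ng/mL for HDP-CDV and 0.5 ng/mL for CDV, crossover design with 14-day washout between single doses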
[7] = 40 mg tablet, fed (high fat breakfast)

## CCCCCCCCCCCCCCCCOCCCOP(=O)(O)COC(CO)Cn1ccc(N)nc1=O (stereo not shown) [HDP-CDV]
[1]
  myelosuppression or nephrotoxicity: has not been associated with either myelosuppression or nephrotoxicity
CMV [2]
  EC50: 1 nM
HHV-6(B)
  EC50: 7 nM
CMV [3]; 61 kg, GCV res (UL97), 3 mg/kg BIW, first month of dosing
  decrease in CMV viremia: GCV res (UL97). There was a 1.9 log10
CMV [3]; 63.3 kg, refractory CMV, UL97 and UL54 mutations, 4 mg/kg BIW, from 9200 copies/mL
  CMV viremia 4 days after the third dose: first day of dosing to 1000 copies/mL 4
CMV [3]; 63.3 kg, refractory CMV, 4 mg/kg BIW
  CMV after dosing interruption: interrupted resulting in virologic rebound.
CMV [3]; 69 kg, 2 mg/kg, 1 mg/kg second dose, then 2 mg/kg BIW, after discontinuation of ganciclovir
  CMV suppression during therapy: CMV suppression continued during HDP-
CMV [3]; 72.8 kg, post lung transplant CMV, 3 mg/kg BIW
  CMV viremia during therapy: There was no change in CMV viremia
HSV
  HSV in the CSF decrease: > 1.8 log10 copies/mL to below the limit of
JCV
  JCV viral load in the CSF and urine during treatment: viral load became undetectable (<300 copies/mL
BKV [4]; 105 subjects consistently BK negative
  rates of creatinine elevations or creatinine or heme+ urine, HDP-CDV vs placebo: numerically similar
BKV [4]; BK negative throughout (7/78), placebo 7.4%
  creatinine elevations >120 microM and =>25% increase over baseline: 9.0%
BKV [4]; BK negative throughout (11/78), placebo 11.1%
  creatinine elevations (>120 last and >25% increase from baseline) OR 1+ heme, confirmed, new onset: 14.1%
BKV [4]; BK positive during treatment (7/93), placebo 18.75%
  end of treatment creatinine elevations >120 microM and =>25% over baseline: 7.5%
BKV [4]; BK positive during treatment (11/93), placebo 37.5%
  creatinine elevations (>120 last and >25% increase from baseline) OR 1+ heme, confirmed, new onset: 11.8%
BKV [4]; BK-positive subjects
  difference in frequency between treatments, creatinine elevations or new onset heme+ urinalyses: 3.2 fold
BKV [4]; FIG. 2
  Creatinine level and renal function vs placebo: prevented increase in Creatinine level and worsening of renal function
BKV [4]; FIG. 2, listed as HDP-cidofovir
  Creatinine level and renal function vs placebo: reduces renal impairment
BKV [4]; BKU+ subjects (10/77), placebo 29%
  developed renal impairment: 13%
BKV [4]; BKU− at baseline, FIG. 2
  end organ damage vs placebo: did not impact the end organ damage
BKV [4]; BKU− subjects (6/94), placebo 6%
  renal impairment: 6%
BKV [4]; Study HDP-CDV-201 retrospective analysis
  efficacy of twice weekly dosing: equally or more effective
BKV [4]; subjects BK viruric during the treatment period
  reduction of the incidence of renal dysfunction (creatinine elevations) vs placebo: 2.5 fold
HSV-1
  EC50: 60 nM
VZV
  reduction of virus spread: 2-3 Log10
AdV
  EC50: 20 nM
BKV [5]; BK viruria positive (BKU+) at Baseline, 4 of 77, placebo 33%
  developed Hem+ during the Study: 5%
BKV [5]; BKU+ subjects at Baseline (6/77), placebo 12.5-13%
  clinical bladder adverse events related to BKV: 8% and 7.8%
BKV [5]; BKU− subjects
  Hem+: 4%
BKV [5]; BKV viruria negative (BKU−) at baseline, FIG. 1
  Hem+ vs placebo: no significant difference
BKV [5]; HDP-CDV treatment vs placebo
  BKV associated adverse bladder events: decreased frequency; also recorded: decreased the incidence; also recorded: beneficial effect
BKV [5]; HDP-CDV- compared to placebo-treated
  rate of confirmed blood positive urinalyses relative to placebo-treated subjects: ⅙^th
BKV [5]; HSCT patients with BKV at base line (BKU+), FIG. 1
  Hematuria (Hem+) vs placebo: prevented Hematuria; also recorded: reduces hematuria
BKV [5]; all HDP-CDV subjects (6/171), placebo 5.1%
  BK-related bladder events (cystitis or blood in urine): 3.5%
BKV [5]; all HDP-CDV-treated subjects (8/171), placebo 15.2%
  rate of blood positive urinalyses during the treatment period: 4.7%
BKV [5]; received 40 mg QW
  subjects with BK-related bladder AEs: 2
BKV [5]; subjects shedding BKV in their urine
  microscopic hematuria: reduction in microscopic hematuria
BKV [5]; subjects who received doses >100 mg QW (4/171)
  BK-related bladder AEs: 2.3%
BKV [5]; subjects with BKV viruria during the treatment period
  difference between pooled HDP-CDV- and placebo-treated groups in rates of confirmed blood positive urinalyses: ~6 fold
BKV [5]; subjects with BKV viruria during the treatment period (4/171), placebo 13.6%
  rate of confirmed blood positive urinalyses: 2.3%
BKV [5]; subjects without BK viruria, placebo 1.7%
  rate of blood positive urinalyses: 2.4%
[6]; 40 mg solution, fasted
  Plasma HDP-CDV CL/F: 77.5 L/h
  Plasma HDP-CDV Tmax: 2.00 h
[6]; 40 mg tablet, fasted
  Plasma HDP-CDV AUC0-inf: 496 ng·h/mL
  Plasma HDP-CDV AUC0-last: 473 ng·h/mL
  Plasma HDP-CDV CL/F: 86.1 L/h
  Plasma HDP-CDV Cmax: 73.9 ng/mL
  Plasma HDP-CDV t1/2: 7.52 h
  Plasma HDP-CDV Tmax: 3.00 h
[6]; [7]
  Plasma HDP-CDV AUC0-inf: 367 ng·h/mL
  Plasma HDP-CDV AUC0-last: 340 ng·h/mL
  Plasma HDP-CDV CL/F: 119 L/h
  Plasma HDP-CDV Cmax: 39.4 ng/mL
  Plasma HDP-CDV t1/2: 6.65 h
  Plasma HDP-CDV Tmax: 6.00 h
[6]; 40 mg tablet, high fat meal vs fasted
  food effect on HDP-CDV absorption and bioavailability: reduced peak concentration and delayed Tmax; also recorded: significant food effect
[6]; after 40 mg HDP-CDV solution, fasted
  Plasma Cidofovir CL/F: 40.8 L/h
[6]; after 40 mg HDP-CDV tablet, fasted
  Plasma Cidofovir CL/F: 44.3 L/h
[6]; after 40 mg HDP-CDV tablet, fed
  Plasma Cidofovir CL/F: 46.9 L/h
[6]; after 40 mg HDP-CDV tablet, high fat meal vs fasted
  food effect on CDV concentrations: unaffected by the presence of food; also recorded: no food effect
[6]; fed tablet (test), TOST
  HDP-CDV Ln(AUCinf) Test Geometric LSM: 343.5310 ng·h/mL
  HDP-CDV Ln(AUClast) Test Geometric LSM: 323.8453 ng·h/mL
  HDP-CDV Ln(Cmax) Test Geometric LSM: 37.0360 ng/mL
[6]; in vivo
  HDP-CDV Ln(AUCinf) Ratio [% Ref]: 72.17 % Ref
  HDP-CDV Ln(AUClast) Ratio [% Ref]: 70.89 % Ref
  HDP-CDV Ln(Cmax) Ratio [% Ref]: 52.56 % Ref
[6]; solution and tablet formulation, 40 mg
  absorption following a single oral administration: readily absorbed
